The values that follow come from US6384051B1, “Method of treating or inhibiting colonic polyps” (American Cyanamid Company, priority 2000, dated 2002).

Where a name gives a salt, the structure may show the parent alone.

For the first data set, the system named is Min mouse (C57BL/6J-Min/+). Kind of data set: in vivo test procedure emulating FAP: Min mouse (C57BL/6J-Min/+), compound blended with AIN-93G chow for 60 days, intestinal polyps counted on day 61.
Conditions: not given
As for the experimental part: The polyps that develop in Min mice express EGFR and have activated COX-2.
On day 61, the animals were euthanized with CO2 inhalation, and the entire intestinal tract from stomach to anus was removed. The intestinal tract was injected with Bouins fixative, and allowed to fix for several days. The intestinal tracts were then opened and the number of polyps counted.
As for `CCOc1cc2ncc(C#N)c(Nc3ccc(F)c(Cl)c3)c2cc1NC(=O)C=CCN(C)C` [Example 399, 4-Dimethylamino-but-2-enoic acid [4-(3-chloro-4-fluoro-phenylamino)-3-cyano-7-ethoxy-quinolin-6-yl]-amide], the “reducing polyp numbers in mice” value is listed as “effective in significantly reducing polyp numbers”.

Test system in the next data set: not given
Assay: not given
Conditions: not given
In general, melting point refers to the temperature, or range, at which the solid turns liquid. Turning to `COc1cc2ncc(C#N)c(Nc3ccc(C)c(Br)c3)c2cc1OC` [Example 248, 4-(3-Bromo-4-methyl-phenylamino)-6,7-dimethoxy-quinoline-3-carbonitrile], the melting point fell in the range of 292 to 294 °C.

Turning to `CN(C)CC#CC(=O)Nc1ccc2ncc(C#N)c(Nc3ccc(F)c(Br)c3)c2c1` [Example 197, N-[4-[(3-Bromo-4-fluorophenyl)amino]-3-cyano-6-quinolinyl]-4-dimethylamino-2-butynamide], the melting point is 228 to 231 °C.

Compound `COc1ccc(Cl)cc1Nc1c(C#N)cnc2cc(OC)c(OC)cc12` [Example 372, 4-(5-Chloro-2-methoxyphenylamino)-6,7-dimethoxy-quinoline-3-carbonitrile] gave a melting point of 200 to 202 °C.

As for `N#Cc1cnc2cc(O)c(O)cc2c1Nc1ccc(Cl)cc1F` [Example 373, 4-(4-Chloro-2-fluoro-phenylamino)-6,7-dihydroxy-quinoline-3-carbonitrile], the melting point lay in the range of 270 to 272 °C.

The compound `N#Cc1cnc2ccc(N)cc2c1Nc1ccc(F)c(Br)c1` [Example 196, 6-amino-4-[(3-Bromo-4-fluorophenyl)amino]-3-quinolinecarbonitrile] returned a melting point of 210 to 212 °C.

With `COc1ccc2ncc(C#N)c(Nc3ccc(Cl)cc3F)c2c1` [Example 283, 4-(4-Chloro-2-fluoro-phenylamino)-6-methoxy-quinoline-3-carbonitrile], the melting point is over 250 °C.

The compound `COc1cc2ncc(C#N)c(Nc3ccc(CCO)cc3)c2cc1OC` [Example 299, 4-[4-(2-Hydroxy-ethyl)-phenylamino]-6,7-dimethoxy-quinoline-3-carbonitrile] registered a melting point of 208 to 210 °C.

For `COc1cc2ncc(C#N)c(Nc3ccc(O)cc3C)c2cc1OC` [Example 292, 4-(4-Hydroxy-2-methyl-phenylamino)-6,7-dimethoxy-quinoline-3-carbonitrile], the melting point was over 250 °C.

`COc1cc2c(Nc3ccc(Cl)cc3F)c(C#N)cnc2cc1OCc1ccccc1` (as salt: hydrochloride) [Example 322, 7-Benzyloxy-4-(4-chloro-2-fluoro-phenylamino)-6-methoxy-quinoline-3-carbonitrile] gave a melting point of 241 to 243 °C.

Compound `COc1cc2ncc(C#N)c(Nc3cc(Br)c(O)c(Br)c3)c2cc1OC` [Example 291, 4-(3,5-Dibromo-4-hydroxy-phenylamino)-6,7-dimethoxy-quinoline-3-carbonitrile] registered a melting point of over 250 °C.

For `CN1CCN(CC#CC(=O)Nc2ccc3ncc(C#N)c(Nc4cccc(Br)c4)c3c2)CC1` [Example 190, N-[4-[(3-Bromophenyl)amino]-3-cyano-6-quinolinyl]-4-(N-methylpiperazino)-2-butynamide], the melting point was 190 °C (dec.).

`COc1cc2ncc(C#N)c(Nc3cccc(O)c3C)c2cc1OC` [Example 245, 4-(3-Hydroxy-2-methyl-phenylamino)-6,7-dimethoxy-quinoline-3-carbonitrile] yielded a melting point of 255 to 257 °C.

Turning to `COc1cc2ncc(C#N)c(Nc3ccc(Cl)cc3C)c2cc1OC` [Example 336, 4-(4-Chloro-2-methylphenylamino)-6,7-dimethoxyquinoline-3-carbonitrile], the melting point was 227 to 229 °C.

In the case of `COc1cc2ncc(C#N)c(Nc3cc(C)ccc3O)c2cc1OC` [Example 295, 4-(2-Hydroxy-5-methyl-phenylamino)-6,7-dimethoxy-quinoline-3-carbonitrile], the melting point was in the range of 198 to 200 °C.

Consider `COc1ccc2c(Nc3cc(O)c(Cl)cc3F)c(C#N)cnc2c1` [Example 282, 4-(4-Chloro-2-fluoro-5-hydroxy-phenylamino)-7-methoxy-quinoline-3-carbonitrile], for which the melting point was 240 °C (dec.).

`COc1ccc(OC)c2c(Nc3ccc(C)c(O)c3)c(C#N)cnc12` [Example 239, 4-(3-Hydroxy-4-methyl-phenylamino)-5,8-dimethoxy-quinoline-3-carbonitrile]: the melting point was in the range of 240 to 242 °C.

On to `CCN(CC)CC#CC(=O)Nc1ccc2ncc(C#N)c(Nc3ccc(F)c(Cl)c3)c2c1` [Example 189, N-[4-[(3-Chloro-4-fluorophenyl)amino]-3-cyano-6-quinolinyl]-4-diethylamino-2-butynamide], for which the melting point lay in the range of 117 to 120 °C.

Consider `COc1cc2ncc(C#N)c(Nc3ccc(Cl)c(C(F)(F)F)c3)c2cc1OC` [Example 338, 4-(4-Chloro-3-trifluoromethylphenylamino)-6,7-dimethoxyquinoline-3-carbonitrile], for which the melting point was in the range of 265 to 267 °C.

`N#Cc1cnc2cc3c(cc2c1Nc1cccc(Br)c1)OCO3` [Example 40, 8-[(3-Bromophenyl)amino]-[1,3]-dioxolo[4,5-g]quinoline-7-carbonitrile]: the melting point was 201 to 205 °C.

Consider `COc1cc2ncc(C#N)c(Nc3ccc(O)c(Cl)c3)c2cc1OC` [Example 249, 4-(3-Chloro-4-hydroxy-phenylamino)-6,7-dimethoxy-quinoline-3-carbonitrile], for which the melting point was in the range of 230 to 232 °C.

In the case of `COc1cc2ncc(C#N)c(Nc3ccc(C(N)=O)cc3)c2cc1OC` [Example 289, 4-(3-Cyano-6,7-dimethoxy-quinolin-4-ylamino)-benzamide], the melting point is over 250 °C.

In the case of `COc1cc2c(Nc3cccc(Br)c3)c(C#N)cnc2c(OC)c1OC` [Example 241, 4-(3-Bromo-phenylamino)-6,7,8-trimethoxy-quinoline-3-carbonitrile], the melting point was in the range of 211 to 213 °C.

The compound `COc1ccc2c(Nc3ccc(C)c(O)c3)c(C#N)cnc2c1` [Example 281, 4-(3-Hydroxy-4-methyl-phenylamino)-7-methoxy-quinoline-3-carbonitrile] displayed a melting point of over 250 °C.

Turning to `COc1cc2ncc(C#N)c(Nc3c(C)cccc3O)c2cc1OC` [Example 246, 4-(2-Hydroxy-6-methyl-phenylamino)-6,7-dimethoxy-quinoline-3-carbonitrile], the melting point was 245 to 247 °C.

Take `COc1cccc2c(Nc3ccc(Br)c(O)c3)c(C#N)cnc12` [Example 278, 4-(4-Bromo-3-hydroxy-phenylamino)-8-methoxy-quinoline-3-carbonitrile]: the melting point was 146 °C (dec.).

Turning to `COc1cc2ncc(C#N)c(Nc3ccc(Cl)cc3F)c2cc1OC` [Example 228, 4-(4-Chloro-2-fluoro-phenylamino)-6,7-dimethoxy-quinoline-3-carbonitrile], the melting point is 139 to 141 °C.

For `COc1ccc(OC)c2c(Nc3cc(O)c(Cl)cc3F)c(C#N)cnc12` [Example 243, 4-(4-Chloro-2-fluoro-5-hydroxy-phenylamino)-5,8-dimethoxy-quinoline-3-carbonitrile], the melting point was 240 °C (dec.).

In the case of `CCN1CCN(CC#CC(=O)Nc2ccc3ncc(C#N)c(Nc4cccc(Br)c4)c3c2)CC1` [Example 188, N-[4-[(3-Bromophenyl)amino]-3-cyano-6-quinolinyl]-4-(N-ethylpiperazino)-2-butynamide], the melting point is 161 °C (dec.).

For the compound `COc1cc2ncc(C#N)c(Nc3ccccc3C(N)=O)c2cc1OC` [Example 297, 2-(3-Cyano-6,7-dimethoxy-quinolin-4-ylamino)-benzamide], the melting point is 238 to 240.5 °C.

Turning to `COc1cccc2c(Nc3cccc(N(C)C)c3)c(C#N)cnc12` [Example 277, 4-(3-Dimethylamino-phenylamino)-8-methoxy-quinoline-3-carbonitrile], the melting point is 222 to 225 °C.

Regarding `COc1cc2ncc(C#N)c(Nc3cccc(CO)c3)c2cc1OC` [Example 48, 4-[(3-(hydroxymethyl)phenyl)amino]-6,7-dimethoxy-3-quinolinecarbonitrile], the melting point lay in the range of 250 to 255 °C.

`COc1ccc(Nc2c(C#N)cnc3c(OC)cccc23)cc1O` [Example 279, 4-(3-Hydroxy-4-methoxy-phenylamino)-8-methoxy-quinoline-3-carbonitrile]: the melting point was 138 to 140 °C (dec.).

Regarding `COc1cc2ncc(C#N)c(Nc3ccc(O)cc3O)c2cc1OC` [Example 300, 4-(2,4-Dihydroxy-phenylamino)-6,7-dimethoxy-quinoline-3-carbonitrile], the melting point is over 250 °C.

The compound `COc1cc2ncc(C#N)c(Nc3cccc(C(N)=O)c3)c2cc1OC` [Example 247, 3-(3-Cyano-6,7-dimethoxy-quinolin-4-ylamino)-benzamide] showed a melting point of 253 to 255 °C.

The next data set deals with min mouse.
Assay: not given
To be noted: background statement on NSAID's; cited from earlier work.
Consider `CCc1cccc2c3c([nH]c12)C(CC)(CC(=O)O)OCC3` (stereo not shown) [etodoloc], for which the “intestinal polyp formulation in min mice (NSAID's)” value is “can reduce (but not eradicate) intestinal polyp formulation”.

As for `CC1=C(CC(=O)O)c2cc(F)ccc2/C1=C\c1ccc([S+](C)[O-])cc1` (stereo not shown) [sulindac], the “intestinal polyp formulation in min mice (NSAID's)” value is listed as “can reduce (but not eradicate) intestinal polyp formulation”.
